Results published in patent US20260226071A1, “2, 4-DIANILINOPYRIMIDINE-BASED AURORA-A KINASE SELECTIVE DEGRADATION INDUCING COMPOUNDS” (UPPTHERA, INC., priority 2023, published 2026).

Columns and labels:
Aurora kinase A (AURKA) = target: T1, Aurora kinase A (AURKA) (Homo sapiens, UniProt O14965); experiment: Luciferase assay for AURKA in HeLa LgBit (AURKA-HiBit KI) cell line; type: cell-based; conditions: HeLa LgBit (AURKA-HiBit KI) cells, measured after 12 hours
T1 construct: endogenous in cells; host or cells: HeLa LgBit (AURKA-HiBit KI), CRISPR/Cas9 knock-in at the endogenous AURKA locus
T1 sequence (O14965 1-403): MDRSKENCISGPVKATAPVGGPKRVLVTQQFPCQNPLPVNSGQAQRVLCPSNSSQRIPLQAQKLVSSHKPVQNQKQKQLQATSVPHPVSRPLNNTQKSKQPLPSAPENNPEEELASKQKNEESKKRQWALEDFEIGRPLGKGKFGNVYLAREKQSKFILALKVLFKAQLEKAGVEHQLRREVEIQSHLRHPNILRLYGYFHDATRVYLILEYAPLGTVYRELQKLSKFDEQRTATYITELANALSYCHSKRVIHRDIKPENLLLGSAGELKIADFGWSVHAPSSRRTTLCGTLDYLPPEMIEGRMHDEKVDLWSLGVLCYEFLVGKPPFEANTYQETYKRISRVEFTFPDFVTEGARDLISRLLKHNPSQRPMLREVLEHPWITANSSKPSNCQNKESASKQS
In short: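 Test compounds (10 nM or 100 nM) added to AURKA-HiBit knock-in HeLa LgBit cells that had been pre-loaded with Endurazine for 2 h following an 18 h culture at 3×10^4 cells. Endogenous AURKA-HiBit level followed by luminescence (470-480 nm), measured after 12 h.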

NCI-H446 cell line = experiment: Cell viability assay for NCI-H446 cell line; type: cell-based; conditions: Homo sapiens, NCI-H446, 120 h; H446 cells, 5 days culture, EZ-Cytox; read-out: IC50 value (Level)
Source text: The NCI-H446 (hereafter H446) cell lines were provided from American Type Culture Collection (ATCC). For cell culture, RPMI medium 1640 (Gibco, Cat. No. 22400-089; Lot. No. 2522717), FBS (Gibco, Cat. No. 16000-044; Lot. No. 2716756P), Penicillin/Streptomycin (PS) (Gibco, Cat. No. 15140-122; Lot. No. 2585636), 75T cell culture flask (SPL, Cat. No. 70075), 96 well cell culture plate (SPL, Cat. No. 30096), PBS pH 7.4 (Gibco, Cat. No. 10010-023; Lot. No. 2561466), TrypLE™ Express (Gibco, Cat. No. 12605-010; Lot. No. 2492811), counting chamber (hematocytometer) (Hirschmann, Cat. No. 8100204) and 0.4% Trypan Blue solution (DYNEBIO, Cat. No. CBT3710; Lot. No. 20231017) were used. Cells were cultured in RPMI 1640 medium supplemented with 10% FBS and 1% PS and incubated at 37° C., 5% CO2 condition in CO2 incubator (ThermoScientific, Cat. No. 4111).
For experiment, the present compounds were fully dissolved in DMSO (Sigma-Aldrich Cat. No. D2438, Lot. No. RNBL7287.
In each well of 96-well cell culture plate, […] cells of H446 cell lines were seeded in 150 μl of total medium volume. After 24 hours of cell seeding, the present compounds were treated.
The present compounds were each diluted 3-folds from the highest concentration of 1000 nM to the lowest concentration of 0.15 nM. The compound was added to each well to make the total volume of […] and the cells were cultured for 5 days in CO2 incubator (Thermo Fisher Science, Cat. No. 4111).
Thereafter, 20 μl of EZ-Cytox (DOGEN, Cat. NO. EZ-3000, Lot. No. DLS2308) was added to each well and the cells were cultured for 4 hours at the same condition in CO2 incubator. After culture, the absorbance of the sample was measured by setting the wavelength of a plate reader (BMG Labtech, CLARIOstar Plus) to […]. The samples were shaked for 2 minutes in the plate reader before measurement.

| Compound | luminescence value (Level) (Aurora kinase A (AURKA); 10 nM compound) | luminescence value (Level) (Aurora kinase A (AURKA); 100 nM compound) | IC50 (NCI-H446 cell line) |
| --- | --- | --- | --- |
| O=C1CCC(Nc2ccc(N3CCC(CN4CCC5(CC4)CCN(C(=O)c4ccc(Nc6ncc(F)c(Nc7ccc(C(=O)Nc8ccccc8Cl)cc7)n6)cc4)C5)CC3)cc2)C(=O)N1 (stereo not drawn) [Compound 33, N-(2-chlorophenyl)-4-[[2-[4-[8-[[1-[4-[(2,6-dioxo-3-piperidyl)amino]phenyl]-4-piperidyl]methyl]-2,8-diazaspiro[4.5]decane-2-carbonyl]anilino]-5-fluoro-pyrimidin-4-yl]amino]benzamide] | B (B is 0.3 to 0.5) | A (A is <0.2) | 100 to 150 nM |
| O=C1CCC(c2ccc(N3CCN(CCC4CCN(NC(=O)c5ccc(Nc6ncc(F)c(Nc7ccc(C(=O)Nc8ccccc8Cl)cc7)n6)cc5)CC4)CC3)cc2F)C(=O)N1 (stereo not drawn) [Compound 82, N-(2-chlorophenyl)-4-((2-((4-((4-(2-(4-(4-(2,6-dioxopiperidin-3-yl)-3-fluorophenyl)piperazin-1-yl)ethyl)piperidin-1-yl)carbamoyl)phenyl)amino)-5-fluoropyrimidin-4-yl)amino)benzamide] | A (A is <0.3) | A (A is <0.2) | < 50 nM |
| O=C1CCC(c2ccc(N3CCN(CCC4CCN(C(=O)c5ccc(Nc6ncc(F)c(Nc7ccc(C(=O)Nc8ccccc8Cl)cc7)n6)cc5)CC4)CC3)cc2)C(=O)N1 (stereo not drawn) [Compound 110, N-(2-chlorophenyl)-4-[[2-[4-[4-[2-[4-[4-(2,6-dioxo-3-piperidyl)phenyl]piperazin-1-yl]ethyl]piperidine-1-carbonyl]anilino]-5-fluoro-pyrimidin-4-yl]amino]benzamide] | C (C is 0.5 to 0.7) | B (B is 0.2 to 0.4) | 150 to 200 nM |
| CN(CC1CCN(c2ccc(C3CCC(=O)NC3=O)cc2)CC1)[C@H]1CC[C@H](NC(=O)c2ccc(Nc3ncc(F)c(Nc4ccc(C(=O)Nc5ccccc5Cl)cc4)n3)cc2)CC1 (stereo partly drawn) [Compound 49, N-(2-chlorophenyl)-4-((2-((4-(((1r,4r)-4-(((1-(4-(2,6-dioxopiperidin-3-yl)phenyl)piperidin-4-yl)methyl)(methyl)amino)cyclohexyl)carbamoyl)phenyl)amino)-5-fluoropyrimidin-4-yl)amino)benzamide] | A (A is <0.3) | A (A is <0.2) | < 50 nM |
| CC(CN1CCN(c2ccc(C3CCC(=O)NC3=O)cc2)CC1)C1CCN(NC(=O)c2ccc(Nc3ncc(F)c(Nc4ccc(C(=O)Nc5ccccc5Cl)cc4)n3)cc2)CC1 (stereo not drawn) [Compound 6, N-(2-chlorophenyl)-4-((2-((4-((4-(1-(4-(4-(2,6-dioxopiperidin-3-yl)phenyl)piperazin-1-yl)propan-2-yl)piperidin-1-yl)carbamoyl)phenyl)amino)-5-fluoropyrimidin-4-yl)amino)benzamide] | B (B is 0.3 to 0.5) | A (A is <0.2) | < 50 nM |
| C[C@H](CN1CCN(c2ccc(C3CCC(=O)NC3=O)cc2)CC1)C1CCN(NC(=O)c2ccc(Nc3ncc(F)c(Nc4ccc(C(=O)Nc5ccccc5Cl)cc4)n3)cc2)CC1 (stereo partly drawn) [Compound 63, N-(2-chlorophenyl)-4-((2-((4-((4-((2S)-1-(4-(4-(2,6-dioxopiperidin-3-yl)phenyl)piperazin-1-yl)propan-2-yl)piperidin-1-yl)carbamoyl)phenyl)amino)-5-fluoropyrimidin-4-yl)amino)benzamide] | A (A is <0.3) | A (A is <0.2) | < 50 nM |
| O=C1CCC(c2ccc(N3CCN(CCCN4CCC(NC(=O)c5ccc(Nc6ncc(F)c(Nc7ccc(C(=O)Nc8ccccc8Cl)cc7)n6)cc5)CC4)CC3)cc2)C(=O)N1 (stereo not drawn) [Compound 71, N-(2-chlorophenyl)-4-((2-((4-((1-(3-(4-(4-(2,6-dioxopiperidin-3-yl)phenyl)piperazin-1-yl)propyl)piperidin-4-yl)carbamoyl)phenyl)amino)-5-fluoropyrimidin-4-yl)amino)benzamide] | A (A is <0.3) | A (A is <0.2) | 100 to 150 nM |
| O=C1CCC(c2ccc(N3CCN(CCN4CCC(NC(=O)c5ccc(Nc6ncc(F)c(Nc7ccc(C(=O)Nc8ccccc8Cl)cc7)n6)cc5)CC4)CC3)cc2)C(=O)N1 (stereo not drawn) [Compound 18, N-(2-chlorophenyl)-4-((2-((4-((1-(2-(4-(4-(2,6-dioxopiperidin-3-yl)phenyl)piperazin-1-yl)ethyl)piperidin-4-yl)carbamoyl)phenyl)amino)-5-fluoropyrimidin-4-yl)amino) benzamide] | A (A is <0.3) | A (A is <0.2) | < 50 nM |
| O=C1CC[C@H](Nc2ccc(N3CCN(CCC4CCN(NC(=O)c5ccc(Nc6ncc(F)c(Nc7ccc(C(=O)Nc8ccccc8Cl)cc7)n6)cc5)CC4)CC3)cc2F)C(=O)N1 [Compound 95, (S)—N-(2-chlorophenyl)-4-((2-((4-((4-(2-(4-(4-((2,6-dioxopiperidin-3-yl)amino)-3-fluorophenyl)piperazin-1-yl)ethyl)piperidin-1-yl)carbamoyl)phenyl)amino)-5-fluoropyrimidin-4-yl)amino)benzamide] | B (B is 0.3 to 0.5) | A (A is <0.2) | 50 to 100 nM |
| O=C1CCC(c2ccc(N3CCN(C[C@H]4CC[C@H](NC(=O)c5ccc(Nc6ncc(F)c(Nc7ccc(C(=O)Nc8ccccc8Cl)cc7)n6)cc5)CC4)CC3)cc2)C(=O)N1 (stereo partly drawn) [Compound 16, N-(2-chlorophenyl)-4-((2-((4-(((1r,4r)-4-((4-(4-(2,6-dioxopiperidin-3-yl)phenyl)piperazin-1-yl)methyl)cyclohexyl)carbamoyl)phenyl)amino)-5-fluoropyrimidin-4-yl)amino)benzamide] | B (B is 0.3 to 0.5) | A (A is <0.2) | 50 to 100 nM |
| O=C1CCC(c2ccc(N3CCC(N4CCC5(CC4)CC(NC(=O)Cc4ccc(Nc6ncc(F)c(Nc7ccc(C(=O)Nc8ccccc8Cl)cc7)n6)cc4)C5)CC3)c(F)c2)C(=O)N1 (stereo not drawn) [Compound 22, N-(2-chlorophenyl)-4-((2-((4-(2-((7-(1-(4-(2,6-dioxopiperidin-3-yl)-2-fluorophenyl)piperidin-4-yl)-7-azaspiro[3.5]nonan-2-yl)amino)-2-oxoethyl)phenyl)amino)-5-fluoropyrimidin-4-yl)amino)benzamide] | A (A is <0.3) | A (A is <0.2) | 100 to 150 nM |
| O=C1CCC(c2ccc(N3CCC(CN4CCC(NC(=O)c5ccc(Nc6ncc(F)c(Nc7ccc(C(=O)Nc8ccccc8Cl)cc7)n6)cc5)CC4)CC3)cc2)C(=O)N1 (stereo not drawn) [Compound 50, N-(2-chlorophenyl)-4-[[2-[4-[[1-[[1-[4-(2,6-dioxo-3-piperidyl)phenyl]-4-piperidyl]methyl]-4-piperidyl]carbamoyl]anilino]-5-fluoro-pyrimidin-4-yl]amino]benzamide] | B (B is 0.3 to 0.5) | A (A is <0.2) | 50 to 100 nM |
